Assay results as given in patent US20260226065A1, “SUBSTITUTED BENZENE COMPOUND” (DAIICHI SANKYO COMPANY, LIMITED, priority 2023, published 2026).
Where a name gives a salt, the structure may show the parent alone.

Target: T1, NLRP3 inflammasome (Homo sapiens, UniProt Q96P20)
T1 construct: endogenous in cells; host or cells: THP-1 (human monocyte-derived), PMA-differentiated, Nigericin-stimulated
Test: In vitro IL-1β production test (PMA-differentiated THP-1 cells, Nigericin stimulation, AlphaLISA)
Format: cell-based
Conditions: inhibition of IL-1β production; THP-1 cells differentiated with 200 nM PMA; 0.015 mM Nigericin; 2 hours
Procedure: Human monocyte-derived THP-1 cells were cultured for one day in 10% bovine serum-containing RPMI-1640 medium (Thermo #A10491-01) supplemented with 200 nM phorbol 12-myristate 13-acetate (PMA, Sigma #P8139) to induce differentiation.
NLRP3 inflammasome was induced by replacing the culture medium with bovine serum-free RPMI-1640 medium supplemented with 0.015 mM Nigericin (Sigma #SML1779) and the test compound of known concentrations.
After 2 hours, the culture medium supernatant was collected and the IL-1β protein concentration was measured using the AlphaLISA (registered trademark) assay (PerkinElmer #AL220C).
The IL-1β concentration without the addition of the test compound and with Nigericin stimulation was set as 0% inhibitory activity, and the IL-1β concentration without Nigericin stimulation was set as 100% inhibitory activity, and the inhibition rate (% inhibition) of the test compound at each added concentration was calculated.
The % inhibition value was subjected to sigmoid fitting using a logistic regression model to calculate the 50% inhibitory concentration (IC50 value).

T1 sequence (Q96P20 whole entry): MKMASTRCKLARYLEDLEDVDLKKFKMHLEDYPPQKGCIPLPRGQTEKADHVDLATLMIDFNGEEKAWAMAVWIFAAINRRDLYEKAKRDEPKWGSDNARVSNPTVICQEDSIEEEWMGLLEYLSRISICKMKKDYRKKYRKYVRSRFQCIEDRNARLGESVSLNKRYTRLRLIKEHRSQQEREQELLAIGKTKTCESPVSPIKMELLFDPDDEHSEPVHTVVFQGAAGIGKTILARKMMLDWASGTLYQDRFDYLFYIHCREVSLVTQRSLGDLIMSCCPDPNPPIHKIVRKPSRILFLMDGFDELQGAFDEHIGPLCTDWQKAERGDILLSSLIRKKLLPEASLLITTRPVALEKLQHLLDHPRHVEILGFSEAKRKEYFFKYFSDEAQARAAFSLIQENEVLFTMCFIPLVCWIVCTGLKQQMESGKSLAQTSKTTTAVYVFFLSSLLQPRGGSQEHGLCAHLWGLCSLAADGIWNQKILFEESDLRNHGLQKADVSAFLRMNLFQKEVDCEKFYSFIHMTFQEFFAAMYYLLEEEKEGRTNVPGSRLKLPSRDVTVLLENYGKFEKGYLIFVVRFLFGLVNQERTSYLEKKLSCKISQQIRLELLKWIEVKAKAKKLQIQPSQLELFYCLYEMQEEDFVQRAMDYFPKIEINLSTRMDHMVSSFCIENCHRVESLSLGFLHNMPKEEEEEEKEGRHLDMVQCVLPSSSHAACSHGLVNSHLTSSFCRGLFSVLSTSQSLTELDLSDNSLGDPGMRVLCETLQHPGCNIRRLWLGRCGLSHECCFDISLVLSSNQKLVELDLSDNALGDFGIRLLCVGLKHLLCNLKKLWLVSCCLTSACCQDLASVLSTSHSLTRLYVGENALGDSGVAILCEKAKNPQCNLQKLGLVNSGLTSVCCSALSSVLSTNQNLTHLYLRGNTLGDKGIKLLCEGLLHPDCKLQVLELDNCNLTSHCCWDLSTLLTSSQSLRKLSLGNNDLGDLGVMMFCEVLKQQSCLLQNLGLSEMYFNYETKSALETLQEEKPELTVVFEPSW

Structure (SMILES) | IC50
Cc1cc(C(F)(F)F)cc(O)c1-c1cc2c3ccccc3n([C@H]3C[C@@](C)(O)C3)c2nn1 [Example 81, 2-{9-[(1s,3s)-3-hydroxy-3-methylcyclobutyl]-9H-pyridazino[3,4-b]indol-3-yl}-3-methyl-5-(trifluoromethyl)phenol] | 54.7 nM
Cc1cc(C(F)(F)F)cc(O)c1-c1cc2ccn([C@H]3C[C@@](C)(O)[C@H]3C)c2nn1 (racemic) [Example 42, 2-{7-[(1S*,2S*,3R*)-3-hydroxy-2,3-dimethylcyclobutyl]-7H-pyrrolo[2,3-c]pyridazin-3-yl}-3-methyl-5-(trifluoromethyl)phenol] | 74 nM
Cc1cc(C(F)(F)F)cc(O)c1-c1cc2ccn(C34CCCC(O)(C3)C4)c2nn1 [Example 88, 5-{3-[2-hydroxy-6-methyl-4-(trifluoromethyl)phenyl]-7H-pyrrolo[2,3-c]pyridazin-7-yl}bicyclo[3.1.1]heptan-1-ol] | 43.1 nM
Cc1cc(C(F)(F)F)cc(O)c1-c1cc2c(C#N)cn([C@H]3C[C@@](C)(O)C3)c2nn1 [Example 45, 7-[(1s,3s)-3-hydroxy-3-methylcyclobutyl]-3-[2-hydroxy-6-methyl-4-(trifluoromethyl)phenyl]-7H-pyrrolo[2,3-c]pyridazine-5-carbonitrile] | 8.81 nM
CCN1CCC[C@@H](c2cccc3cc(-c4c(C)cc(C(F)(F)F)cc4O)nnc23)C1 (single isomer, unassigned) [Example 97, 2-{8-[(3R or 3S)-1-ethylpiperidin-3-yl]cinnolin-3-yl}-3-methyl-5-(trifluoromethyl)phenol] | 8.33 nM
CCN1[C@H]2CC[C@@H]1[C@H](n1cc(C)c3cc(-c4c(C)cc(C(F)(F)F)cc4O)nnc31)CC2 (single isomer, unassigned) [Example 76, 2-{7-[(1R,2R,5S or 1S,2S,5R)-8-ethyl-8-azabicyclo[3.2.1]octan-2-yl]-5-methyl-7H-pyrrolo[2,3-c]pyridazin-3-yl}-3-methyl-5-(trifluoromethyl)phenol] | 10.1 nM
COc1cn([C@H]2C[C@@](C)(O)C2)c2nnc(-c3c(C)cc(OC(F)F)cc3O)cc12 [Example 72, 5-(difluoromethoxy)-2-{7-[(1s,3s)-3-hydroxy-3-methylcyclobutyl]-5-methoxy-7H-pyrrolo[2,3-c]pyridazin-3-yl}-3-methylphenol] | 53.1 nM
Cc1cc(C(F)(F)F)cc(O)c1-c1cc2ncn([C@@H]3CCCN(C)C3)c2nn1 [Example 32, 3-methyl-2-{7-[(3R)-1-methylpiperidin-3-yl]-7H-imidazo[4,5-c]pyridazin-3-yl}-5-(trifluoromethyl)phenol] | 30.6 nM
Cc1cc(C(F)(F)F)cc(O)c1-c1cc2cccc([C@@H]3CCCN(C)C3)c2nn1 (single isomer, unassigned) [Example 96, 3-methyl-2-{8-[(3R or 3S)-1-methylpiperidin-3-yl]cinnolin-3-yl}-5-(trifluoromethyl)phenol] | 11.5 nM
CCN1CCC[C@@H](n2cc(C#N)c3cc(-c4c(C)cc(OC(F)F)cc4O)nnc32)C1 [Example 67, 3-[4-(difluoromethoxy)-2-hydroxy-6-methylphenyl]-7-[(3R)-1-ethylpiperidin-3-yl]-7H-pyrrolo[2,3-c]pyridazine-5-carbonitrile] | 4.93 nM
Cc1cc(C(F)(F)F)cc(O)c1-c1cc2c(nn1)N([C@@H]1CCCN(C3CC3)C1)CC2 [Example 18, 2-{7-[(3R)-1-cyclopropylpiperidin-3-yl]-6,7-dihydro-5H-pyrrolo[2,3-c]pyridazin-3-yl}-3-methyl-5-(trifluoromethyl)phenol] | 6.65 nM
Cc1cc(C(F)(F)F)cc(O)c1-c1cc2c(nn1)N([C@H]1C[C@@](C)(O)C1)CC2 [Example 40, 2-{7-[(1s,3s)-3-hydroxy-3-methylcyclobutyl]-6,7-dihydro-5H-pyrrolo[2,3-c]pyridazin-3-yl}-3-methyl-5-(trifluoromethyl)phenol monohydrochloride] | 162 nM
CCN1CCC[C@@H](N2CCc3cc(-c4c(C)cc(Cl)cc4O)nnc32)C1 [Example 26, 5-chloro-2-{7-[(3R)-1-ethylpiperidin-3-yl]-6,7-dihydro-5H-pyrrolo[2,3-c]pyridazin-3-yl}-3-methylphenol] | 6.18 nM
Cc1cc(C(F)(F)F)cc(O)c1-c1cc2c(C3CC3)cn([C@H]3C[C@@](C)(O)C3)c2nn1 [Example 46, 2-[5-cyclopropyl-7-[(1s,3s)-3-hydroxy-3-methylcyclobutyl]-7H-pyrrolo[2,3-c]pyridazin-3-yl]-3-methyl-5-(trifluoromethyl)phenol] | 91.4 nM
Cc1cc(C(F)(F)F)cc(O)c1-c1cc2c(nn1)N([C@@H]1CCCN(C)C1)CC2 [Example 1, 3-methyl-2-{7-[(3R)-1-methylpiperidin-3-yl]-6,7-dihydro-5H-pyrrolo[2,3-c]pyridazin-3-yl}-5-(trifluoromethyl)phenol] | 5.27 nM
Cc1cc(C(F)(F)F)cc(O)c1-c1cc2c3c(n([C@H]4C[C@@](C)(O)C4)c2nn1)COC3 [Example 99, 2-{8-[(1s,3s)-3-hydroxy-3-methylcyclobutyl]-7,8-dihydro-5H-furo[3′,4′:4,5]pyrrolo[2,3-c]pyridazin-3-yl}-3-methyl-5-(trifluoromethyl)phenol] | 9.53 nM
Cc1cc(C(F)(F)F)cc(O)c1-c1cc2cnn(C3CCCN(C)C3)c2nn1 (racemic) [Example 31, 3-methyl-2-[1-(1-methylpiperidin-3-yl)-1H-pyrazolo[3,4-c]pyridazin-5-yl]-5-(trifluoromethyl)phenol] | 413 nM
Cc1cc(C(F)(F)F)cc(O)c1-c1cc2c(nn1)N([C@@H]1CCCN(CC(C)(C)O)C1)CC2 [Example 58, 2-{7-[(3R)-1-(2-hydroxy-2-methylpropyl)piperidin-3-yl]-6,7-dihydro-5H-pyrrolo[2,3-c]pyridazin-3-yl}-3-methyl-5-(trifluoromethyl)phenol] | 55.8 nM
Cc1cc(C(F)(F)F)cc(O)c1-c1cc2c(nn1)N([C@@H]1CCCN(C)C1)CCCN2C [Example 37, 3-methyl-2-{5-methyl-9-[(3R)-1-methylpiperidin-3-yl]-6,7,8,9-tetrahydro-5H-pyridazino[3,4-b][1,4]diazepin-3-yl}-5-(trifluoromethyl)phenol] | 25.8 nM
Cc1cc(C#N)cc(O)c1-c1cc2c(C)cn([C@H]3C[C@@](C)(O)C3)c2nn1 [Example 52, 3-hydroxy-4-{7-[(1s,3s)-3-hydroxy-3-methylcyclobutyl]-5-methyl-7H-pyrrolo[2,3-c]pyridazin-3-yl}-5-methylbenzonitrile] | 39.1 nM
CCN1CCC[C@@H](n2cc(C)c3cc(-c4c(C)cc(C(F)(F)F)cc4O)nnc32)C1 [Example 20, 2-{7-[(3R)-1-ethylpiperidin-3-yl]-5-methyl-7H-pyrrolo[2,3-c]pyridazin-3-yl}-3-methyl-5-(trifluoromethyl)phenol] | 8.19 nM
CCN1CCC[C@@H](n2cc(OC)c3cc(-c4c(C)cc(C(F)(F)F)cc4O)nnc32)C1 [Example 77, 2-{7-[(3R)-1-ethylpiperidin-3-yl]-5-methoxy-7H-pyrrolo[2,3-c]pyridazin-3-yl}-3-methyl-5-(trifluoromethyl)phenol] | 14 nM
Cc1cc(C(F)F)cc(O)c1-c1cc2c(C)cn([C@H]3C[C@@](C)(O)C3)c2nn1 [Example 92, 5-(difluoromethyl)-2-{7-[(1s,3s)-3-hydroxy-3-methylcyclobutyl]-5-methyl-7H-pyrrolo[2,3-c]pyridazin-3-yl}-3-methylphenol] | 59.2 nM
CCN1CCC[C@@H](n2cc(C#N)c3cc(-c4c(C)cc(C(F)(F)F)cc4O)nnc32)C1 [Example 64, 7-[(3R)-1-ethylpiperidin-3-yl]-3-[2-hydroxy-6-methyl-4-(trifluoromethyl)phenyl]-7H-pyrrolo[2,3-c]pyridazine-5-carbonitrile] | 9.6 nM
Cc1cc(C(F)(F)F)cc(O)c1-c1cc2c(nn1)N([C@@H]1C[C@@H](F)CN(C)C1)CC2 [Example 60, 2-{7-[(3R,5R)-5-fluoro-1-methylpiperidin-3-yl]-6,7-dihydro-5H-pyrrolo[2,3-c]pyridazin-3-yl}-3-methyl-5-(trifluoromethyl)phenol] | 74.8 nM
Cc1cc(C(F)(F)F)cc(O)c1-c1cc2c3c(n([C@H]4C[C@@](C)(O)C4)c2nn1)CCC3 [Example 12, 2-{8-[(1s,3s)-3-hydroxy-3-methylcyclobutyl]-5,6,7,8-tetrahydrocyclopenta[4,5]pyrrolo[2,3-c]pyridazin-3-yl}-3-methyl-5-(trifluoromethyl)phenol] | 25.9 nM
Cc1cc(C(F)(F)F)cc(O)c1-c1cc2c(nn1)N([C@@H]1CCCN(C)C1)C[C@H]2C (single isomer, unassigned) [Example 33, 3-methyl-2-{(5S or 5R)-5-methyl-7-[(3R)-1-methylpiperidin-3-yl]-6,7-dihydro-5H-pyrrolo[2,3-c]pyridazin-3-yl}-5-(trifluoromethyl)phenol] | 10 nM
Cc1cc(C(F)(F)F)cc(O)c1-c1ccc(CC2CCCN(C)C2)nn1 (racemic) [Example 93, 3-methyl-2-{6-[(1-methylpiperidin-3-yl)methyl]pyridazin-3-yl}-5-(trifluoromethyl)phenol] | 30.1 nM
CCN1[C@H]2CC[C@H](N3CCc4cc(-c5c(C)cc(C(F)(F)F)cc5O)nnc43)[C@@H]1CC2 (racemic) [Example 17, 2-{7-[(1S*, 2S*, 5R*)-8-ethyl-8-azabicyclo[3.2.1]octan-2-yl]-6,7-dihydro-5H-pyrrolo[2,3-c]pyridazin-3-yl}-3-methyl-5-(trifluoromethyl)phenol] | 9.47 nM
